Results as given in ChEMBL document CHEMBL1144226, “Design and synthesis of 2-amino-isoxazolopyridines as Polo-like kinase inhibitors” (Bioorg Med Chem Lett, 2008).
Active and inactive are the calls of the source. The calls are words filed in the database; no cut-off is given here.

Experiments:
cells = conditions: Homo sapiens, HCT-116
[1] = target: Serine/threonine-protein kinase PLK3 (Homo sapiens, UniProt Q9H4B4)
[2] = target: Serine/threonine-protein kinase PLK1 (Homo sapiens, UniProt P53350)
[3] = target: Serine/threonine-protein kinase PLK2 (Homo sapiens, UniProt Q9NYY3)
HCT-116 = assay: Effect on morphology in human HCT 116 cells assessed as monopolar spindle phenotype; type: functional, cell-based

Serine/threonine-protein kinase PLK1, sequence (P53350 whole entry): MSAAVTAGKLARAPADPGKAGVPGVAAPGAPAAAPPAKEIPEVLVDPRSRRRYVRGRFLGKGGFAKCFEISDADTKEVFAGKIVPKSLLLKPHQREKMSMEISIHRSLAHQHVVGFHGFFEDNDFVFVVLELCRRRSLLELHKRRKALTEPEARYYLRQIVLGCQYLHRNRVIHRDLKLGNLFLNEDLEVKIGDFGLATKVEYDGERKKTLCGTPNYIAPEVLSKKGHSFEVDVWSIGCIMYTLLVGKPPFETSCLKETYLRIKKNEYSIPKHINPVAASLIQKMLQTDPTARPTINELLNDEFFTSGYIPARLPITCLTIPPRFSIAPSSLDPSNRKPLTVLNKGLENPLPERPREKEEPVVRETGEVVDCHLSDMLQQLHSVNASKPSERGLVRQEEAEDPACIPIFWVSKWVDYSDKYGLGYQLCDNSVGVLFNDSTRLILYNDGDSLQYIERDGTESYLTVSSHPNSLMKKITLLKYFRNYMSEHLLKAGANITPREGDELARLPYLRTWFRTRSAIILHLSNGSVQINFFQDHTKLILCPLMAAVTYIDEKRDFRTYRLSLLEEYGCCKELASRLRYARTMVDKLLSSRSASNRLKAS
Serine/threonine-protein kinase PLK3, sequence (Q9H4B4 whole entry): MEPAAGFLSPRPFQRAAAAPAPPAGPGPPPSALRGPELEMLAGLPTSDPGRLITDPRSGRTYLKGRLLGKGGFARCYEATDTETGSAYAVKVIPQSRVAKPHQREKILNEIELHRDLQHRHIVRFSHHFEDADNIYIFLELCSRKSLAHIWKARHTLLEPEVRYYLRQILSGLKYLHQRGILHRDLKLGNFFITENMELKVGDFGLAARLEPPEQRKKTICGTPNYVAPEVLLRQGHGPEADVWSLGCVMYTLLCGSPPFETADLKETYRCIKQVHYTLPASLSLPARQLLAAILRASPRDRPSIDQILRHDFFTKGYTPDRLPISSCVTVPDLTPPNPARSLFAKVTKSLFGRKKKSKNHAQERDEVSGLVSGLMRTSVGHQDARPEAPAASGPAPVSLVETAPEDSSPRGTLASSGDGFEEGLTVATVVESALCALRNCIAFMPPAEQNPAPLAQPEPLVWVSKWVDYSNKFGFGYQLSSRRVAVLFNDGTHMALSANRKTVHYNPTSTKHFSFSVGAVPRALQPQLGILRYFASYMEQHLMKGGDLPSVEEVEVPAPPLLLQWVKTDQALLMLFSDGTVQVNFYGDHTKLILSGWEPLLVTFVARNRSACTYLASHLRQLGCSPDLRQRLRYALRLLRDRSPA
Serine/threonine-protein kinase PLK2, sequence (Q9NYY3 whole entry): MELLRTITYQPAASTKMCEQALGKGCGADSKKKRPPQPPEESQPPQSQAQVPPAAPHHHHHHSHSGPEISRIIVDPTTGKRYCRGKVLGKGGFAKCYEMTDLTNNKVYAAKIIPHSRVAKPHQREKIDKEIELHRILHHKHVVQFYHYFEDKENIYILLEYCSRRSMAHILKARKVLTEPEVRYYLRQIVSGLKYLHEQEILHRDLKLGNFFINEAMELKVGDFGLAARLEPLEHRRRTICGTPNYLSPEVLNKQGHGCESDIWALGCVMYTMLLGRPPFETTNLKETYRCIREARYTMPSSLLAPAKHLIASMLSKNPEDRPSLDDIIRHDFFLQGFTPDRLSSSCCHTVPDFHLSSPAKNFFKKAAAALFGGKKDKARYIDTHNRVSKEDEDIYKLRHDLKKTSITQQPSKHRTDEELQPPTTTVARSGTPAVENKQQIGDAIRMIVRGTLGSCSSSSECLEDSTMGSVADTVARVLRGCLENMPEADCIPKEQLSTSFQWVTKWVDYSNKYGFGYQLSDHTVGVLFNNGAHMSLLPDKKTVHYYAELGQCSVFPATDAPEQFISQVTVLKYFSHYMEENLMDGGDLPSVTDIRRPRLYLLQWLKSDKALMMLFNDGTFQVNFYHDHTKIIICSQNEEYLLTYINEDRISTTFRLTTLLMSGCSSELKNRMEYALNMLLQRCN

| SMILES | IC50 (cells) [µM] | further results |
| --- | --- | --- |
| Cc1ccc(-c2noc3cnc(N[C@@H](C)c4ccccc4)cc23)cc1 | > 20 | – |
| Cc1cc(C)cc(-c2noc3cnc(N[C@@H](C)c4ccccc4)cc23)c1 | > 20 | – |
| C[C@H](Nc1cc2c(-c3ccccc3)noc2cn1)c1ccccc1 | > 20 | – |
| C[C@H](Nc1cc2c(-c3cc(Cl)cc(CCCO)c3)noc2cn1)c1ccccc1 | 10.2 | – |
| C[C@H](Nc1cc2c(-c3ccc4c(c3)OCO4)noc2cn1)c1ccccc1 | 7.32 | IC50 [1]: 0.024 µM; IC50 [2]: 0.214 µM; IC50 [3]: 0.004 µM |
| C[C@H](Nc1cc2c(-c3cccc(Cl)c3)noc2cn1)c1ccccc1 | > 20 | – |
| C[C@H](Nc1cc2c(-c3cc(Cl)cc(CCC(N)=O)c3)noc2cn1)c1ccccc1 | 8.35 | Activity (HCT-116): Active |
| COc1ccc(-c2noc3cnc(N[C@@H](C)c4ccccc4)cc23)cc1OC | > 20 | – |
| C[C@H](Nc1cc2c(Cc3ccccc3)noc2cn1)c1ccccc1 | – | IC50 [2]: > 20 µM |
| Cc1cccc(-c2noc3cnc(N[C@@H](C)c4ccccc4)cc23)c1 | 6.69 | – |
